# Test results reported in the supplement of paper PMC10307832.
# Experiments:
# Experiment in all cases: relative viability (nuclei count vs DMSO), 5 days (fraction); higher = more cells survive
# Selisistat + Linsitinib = compound: C1CC(C2=C(C1)C3=C(N2)C=CC(=C3)Cl)C(=O)N [Selisistat] + C[C@]1(O)C[C@@H](c2nc(-c3ccc4ccc(-c5ccccc5)nc4c3)c3c(N)nccn32)C1 [Linsitinib] (partner 1 µM)
# In short: (§1)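 Lung cancer cell lines were seeded in 1536-well plates and dosed by pin tool the next day, with either a single drug or a fixed anchor-drug dose combined with five library-drug doses (not always all listed) spaced in √10 steps. Five days later, one step fixed the cells and stained their nuclei (final 0.05% Triton X-100, 1% formaldehyde, 1 ug/ml Hoechst), and nuclei were counted on 4× images. Relative viability is the nuclei count in treated wells divided by the count in vehicle wells, and each value is the median of duplicate plates.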
# Selisistat + Trametinib = compound: C1CC(C2=C(C1)C3=C(N2)C=CC(=C3)Cl)C(=O)N [Selisistat] + CC(=O)Nc1cccc(-n2c(=O)n(C3CC3)c(=O)c3c(Nc4ccc(I)cc4F)n(C)c(=O)c(C)c32)c1 [Trametinib] (partner 0.02 µM)
# In short: as §1
# Selisistat + Navitoclax = compound: C1CC(C2=C(C1)C3=C(N2)C=CC(=C3)Cl)C(=O)N [Selisistat] + CC1(C)CCC(c2ccc(Cl)cc2)=C(CN2CCN(c3ccc(C(=O)NS(=O)(=O)c4ccc(N[C@H](CCN5CCOCC5)CSc5ccccc5)c(S(=O)(=O)C(F)(F)F)c4)cc3)CC2)C1 [Navitoclax] (partner 0.5 µM)
# In short: as §1
# Selisistat + Palbociclib = compound: C1CC(C2=C(C1)C3=C(N2)C=CC(=C3)Cl)C(=O)N [Selisistat] + CC(=O)c1c(C)c2cnc(Nc3ccc(N4CCNCC4)cn3)nc2n(C2CCCC2)c1=O [Palbociclib] (partner 0.5 µM)
# In short: as §1
cell line,measurement,setting,value
HCC-827,relative viability,Selisistat + Linsitinib; first compound 0.4 µM,0.873
same,relative viability,Selisistat + Linsitinib; first compound 1.265 µM,0.873
same,relative viability,Selisistat + Linsitinib; first compound 4 µM,0.941
same,relative viability,Selisistat + Linsitinib; first compound 12.65 µM,0.948
same,relative viability,Selisistat + Linsitinib; first compound 40 µM,1.01
same,relative viability,Selisistat + Trametinib; first compound 0.4 µM,0.529
same,relative viability,Selisistat + Trametinib; first compound 1.265 µM,0.575
same,relative viability,Selisistat + Trametinib; first compound 4 µM,0.546
same,relative viability,Selisistat + Trametinib; first compound 12.65 µM,0.572
same,relative viability,Selisistat + Trametinib; first compound 40 µM,0.559
same,relative viability,Selisistat + Navitoclax; first compound 0.4 µM,1.03
same,relative viability,Selisistat + Navitoclax; first compound 1.265 µM,0.992
same,relative viability,Selisistat + Navitoclax; first compound 4 µM,1.01
same,relative viability,Selisistat + Navitoclax; first compound 12.65 µM,1.01
same,relative viability,Selisistat + Navitoclax; first compound 40 µM,1.01
same,relative viability,Selisistat + Palbociclib; first compound 0.4 µM,0.483
same,relative viability,Selisistat + Palbociclib; first compound 1.265 µM,0.475
same,relative viability,Selisistat + Palbociclib; first compound 4 µM,0.534
same,relative viability,Selisistat + Palbociclib; first compound 12.65 µM,0.439
same,relative viability,Selisistat + Palbociclib; first compound 40 µM,0.527
HOP-62,relative viability,Selisistat + Linsitinib; first compound 0.4 µM,1.04
same,relative viability,Selisistat + Linsitinib; first compound 1.265 µM,1.18
same,relative viability,Selisistat + Linsitinib; first compound 4 µM,1.07
same,relative viability,Selisistat + Linsitinib; first compound 12.65 µM,0.978
same,relative viability,Selisistat + Linsitinib; first compound 40 µM,0.94
same,relative viability,Selisistat + Trametinib; first compound 0.4 µM,0.431
same,relative viability,Selisistat + Trametinib; first compound 1.265 µM,0.394
same,relative viability,Selisistat + Trametinib; first compound 4 µM,0.362
same,relative viability,Selisistat + Trametinib; first compound 12.65 µM,0.401
same,relative viability,Selisistat + Trametinib; first compound 40 µM,0.408
same,relative viability,Selisistat + Navitoclax; first compound 0.4 µM,1.07
same,relative viability,Selisistat + Navitoclax; first compound 1.265 µM,0.905
same,relative viability,Selisistat + Navitoclax; first compound 4 µM,1.02
same,relative viability,Selisistat + Navitoclax; first compound 12.65 µM,0.934
same,relative viability,Selisistat + Navitoclax; first compound 40 µM,1.16
same,relative viability,Selisistat + Palbociclib; first compound 0.4 µM,0.43
same,relative viability,Selisistat + Palbociclib; first compound 1.265 µM,0.43
same,relative viability,Selisistat + Palbociclib; first compound 4 µM,0.508
same,relative viability,Selisistat + Palbociclib; first compound 12.65 µM,0.424
same,relative viability,Selisistat + Palbociclib; first compound 40 µM,0.619
LC-2-ad,relative viability,Selisistat + Linsitinib; first compound 0.4 µM,0.88
same,relative viability,Selisistat + Linsitinib; first compound 1.265 µM,0.846
same,relative viability,Selisistat + Linsitinib; first compound 4 µM,0.867
same,relative viability,Selisistat + Linsitinib; first compound 12.65 µM,0.808
same,relative viability,Selisistat + Linsitinib; first compound 40 µM,0.856
same,relative viability,Selisistat + Trametinib; first compound 0.4 µM,0.973
same,relative viability,Selisistat + Trametinib; first compound 1.265 µM,0.96
same,relative viability,Selisistat + Trametinib; first compound 4 µM,0.898
same,relative viability,Selisistat + Trametinib; first compound 12.65 µM,0.662
same,relative viability,Selisistat + Trametinib; first compound 40 µM,0.95
same,relative viability,Selisistat + Navitoclax; first compound 0.4 µM,0.514
same,relative viability,Selisistat + Navitoclax; first compound 1.265 µM,0.475
same,relative viability,Selisistat + Navitoclax; first compound 4 µM,0.507
same,relative viability,Selisistat + Navitoclax; first compound 12.65 µM,0.485
same,relative viability,Selisistat + Navitoclax; first compound 40 µM,0.561
same,relative viability,Selisistat + Palbociclib; first compound 0.4 µM,0.508
same,relative viability,Selisistat + Palbociclib; first compound 1.265 µM,0.49
same,relative viability,Selisistat + Palbociclib; first compound 4 µM,0.498
same,relative viability,Selisistat + Palbociclib; first compound 12.65 µM,0.502
same,relative viability,Selisistat + Palbociclib; first compound 40 µM,0.555
LCLC-97TM1,relative viability,Selisistat + Linsitinib; first compound 0.4 µM,0.166
same,relative viability,Selisistat + Linsitinib; first compound 1.265 µM,0.156
same,relative viability,Selisistat + Linsitinib; first compound 4 µM,0.193
same,relative viability,Selisistat + Linsitinib; first compound 12.65 µM,0.167
same,relative viability,Selisistat + Linsitinib; first compound 40 µM,0.245
same,relative viability,Selisistat + Trametinib; first compound 0.4 µM,0.192
same,relative viability,Selisistat + Trametinib; first compound 1.265 µM,0.208
same,relative viability,Selisistat + Trametinib; first compound 12.65 µM,0.163
same,relative viability,Selisistat + Trametinib; first compound 40 µM,0.217
same,relative viability,Selisistat + Navitoclax; first compound 0.4 µM,0.535
same,relative viability,Selisistat + Navitoclax; first compound 1.265 µM,0.476
same,relative viability,Selisistat + Navitoclax; first compound 4 µM,0.621
same,relative viability,Selisistat + Navitoclax; first compound 12.65 µM,0.473
same,relative viability,Selisistat + Navitoclax; first compound 40 µM,0.483
same,relative viability,Selisistat + Palbociclib; first compound 0.4 µM,0.234
same,relative viability,Selisistat + Palbociclib; first compound 1.265 µM,0.256
same,relative viability,Selisistat + Palbociclib; first compound 12.65 µM,0.214
same,relative viability,Selisistat + Palbociclib; first compound 40 µM,0.249
LK-2,relative viability,Selisistat + Linsitinib; first compound 0.4 µM,0.265
same,relative viability,Selisistat + Linsitinib; first compound 1.265 µM,0.437
same,relative viability,Selisistat + Linsitinib; first compound 4 µM,0.341
same,relative viability,Selisistat + Linsitinib; first compound 12.65 µM,0.519
same,relative viability,Selisistat + Linsitinib; first compound 40 µM,0.619
same,relative viability,Selisistat + Trametinib; first compound 0.4 µM,0.994
same,relative viability,Selisistat + Trametinib; first compound 1.265 µM,0.677
same,relative viability,Selisistat + Trametinib; first compound 4 µM,0.711
same,relative viability,Selisistat + Trametinib; first compound 12.65 µM,0.656
same,relative viability,Selisistat + Trametinib; first compound 40 µM,1.01
same,relative viability,Selisistat + Navitoclax; first compound 0.4 µM,1.01
same,relative viability,Selisistat + Navitoclax; first compound 1.265 µM,0.746
same,relative viability,Selisistat + Navitoclax; first compound 4 µM,0.954
same,relative viability,Selisistat + Navitoclax; first compound 12.65 µM,0.847
same,relative viability,Selisistat + Navitoclax; first compound 40 µM,1.04
same,relative viability,Selisistat + Palbociclib; first compound 0.4 µM,0.797
same,relative viability,Selisistat + Palbociclib; first compound 1.265 µM,0.686
same,relative viability,Selisistat + Palbociclib; first compound 4 µM,0.766
same,relative viability,Selisistat + Palbociclib; first compound 12.65 µM,0.694
same,relative viability,Selisistat + Palbociclib; first compound 40 µM,0.566
LOU-NH91,relative viability,Selisistat + Linsitinib; first compound 0.4 µM,0.999
same,relative viability,Selisistat + Linsitinib; first compound 1.265 µM,0.95
same,relative viability,Selisistat + Linsitinib; first compound 4 µM,0.848
same,relative viability,Selisistat + Linsitinib; first compound 12.65 µM,1.08
same,relative viability,Selisistat + Linsitinib; first compound 40 µM,0.937
same,relative viability,Selisistat + Trametinib; first compound 0.4 µM,0.805
same,relative viability,Selisistat + Trametinib; first compound 1.265 µM,0.799
same,relative viability,Selisistat + Trametinib; first compound 4 µM,0.767
same,relative viability,Selisistat + Trametinib; first compound 12.65 µM,0.798
same,relative viability,Selisistat + Trametinib; first compound 40 µM,0.776
same,relative viability,Selisistat + Navitoclax; first compound 0.4 µM,0.695
same,relative viability,Selisistat + Navitoclax; first compound 1.265 µM,0.637
same,relative viability,Selisistat + Navitoclax; first compound 4 µM,0.58
same,relative viability,Selisistat + Navitoclax; first compound 12.65 µM,0.664
same,relative viability,Selisistat + Navitoclax; first compound 40 µM,0.707
same,relative viability,Selisistat + Palbociclib; first compound 0.4 µM,0.594
same,relative viability,Selisistat + Palbociclib; first compound 1.265 µM,0.526
same,relative viability,Selisistat + Palbociclib; first compound 4 µM,0.585
same,relative viability,Selisistat + Palbociclib; first compound 12.65 µM,0.519
same,relative viability,Selisistat + Palbociclib; first compound 40 µM,0.552
LU99A,relative viability,Selisistat + Linsitinib; first compound 0.4 µM,0.537
same,relative viability,Selisistat + Linsitinib; first compound 1.265 µM,0.608
same,relative viability,Selisistat + Linsitinib; first compound 4 µM,0.657
same,relative viability,Selisistat + Linsitinib; first compound 12.65 µM,0.516
same,relative viability,Selisistat + Linsitinib; first compound 40 µM,0.485
same,relative viability,Selisistat + Trametinib; first compound 0.4 µM,0.596
same,relative viability,Selisistat + Trametinib; first compound 1.265 µM,0.561
same,relative viability,Selisistat + Trametinib; first compound 4 µM,0.552
same,relative viability,Selisistat + Trametinib; first compound 12.65 µM,0.52
same,relative viability,Selisistat + Trametinib; first compound 40 µM,0.575
same,relative viability,Selisistat + Navitoclax; first compound 0.4 µM,0.797
same,relative viability,Selisistat + Navitoclax; first compound 1.265 µM,0.864
same,relative viability,Selisistat + Navitoclax; first compound 4 µM,0.864
same,relative viability,Selisistat + Navitoclax; first compound 12.65 µM,0.915
same,relative viability,Selisistat + Navitoclax; first compound 40 µM,0.966
same,relative viability,Selisistat + Palbociclib; first compound 0.4 µM,0.459
same,relative viability,Selisistat + Palbociclib; first compound 1.265 µM,0.367
same,relative viability,Selisistat + Palbociclib; first compound 4 µM,0.44
same,relative viability,Selisistat + Palbociclib; first compound 12.65 µM,0.445
same,relative viability,Selisistat + Palbociclib; first compound 40 µM,0.399
LXF-289,relative viability,Selisistat + Linsitinib; first compound 0.4 µM,0.995
same,relative viability,Selisistat + Linsitinib; first compound 1.265 µM,0.954
same,relative viability,Selisistat + Linsitinib; first compound 4 µM,0.895
same,relative viability,Selisistat + Linsitinib; first compound 12.65 µM,0.913
same,relative viability,Selisistat + Linsitinib; first compound 40 µM,1.01
same,relative viability,Selisistat + Trametinib; first compound 0.4 µM,0.72
same,relative viability,Selisistat + Trametinib; first compound 1.265 µM,0.727
same,relative viability,Selisistat + Trametinib; first compound 4 µM,0.646
same,relative viability,Selisistat + Trametinib; first compound 12.65 µM,0.69
same,relative viability,Selisistat + Trametinib; first compound 40 µM,0.731
same,relative viability,Selisistat + Navitoclax; first compound 0.4 µM,0.95
same,relative viability,Selisistat + Navitoclax; first compound 1.265 µM,0.966
same,relative viability,Selisistat + Navitoclax; first compound 4 µM,0.895
same,relative viability,Selisistat + Navitoclax; first compound 12.65 µM,0.901
same,relative viability,Selisistat + Navitoclax; first compound 40 µM,0.92
same,relative viability,Selisistat + Palbociclib; first compound 0.4 µM,0.628
same,relative viability,Selisistat + Palbociclib; first compound 1.265 µM,0.639
same,relative viability,Selisistat + Palbociclib; first compound 4 µM,0.55
same,relative viability,Selisistat + Palbociclib; first compound 12.65 µM,0.557
same,relative viability,Selisistat + Palbociclib; first compound 40 µM,0.619
